Experimental data as given in patent US9492471B2, “Methods of treating a disease or disorder associated with Bruton'S Tyrosine Kinase” (Celgene Avilomics Research, Inc., priority 2013, dated 2016).
Where two headings read alike, the source gives them in different places.

Tests used:
Test in all cases: HotSpot kinase profiling
Type in all cases: biochemical
CDK9/cyclin K = target: T1, CDK9/cyclin K (Homo sapiens, UniProt P50750)
T1 construct: purchased Reaction Biology Corp
Outline: (§1)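 Activity is measured by radiolabel transfer captured on P81 filters after a 2 h room-temperature reaction of kinase, substrate and cofactors. Values are percent inhibition against DMSO.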

FES/FPS = target: T2, FES/FPS (Homo sapiens, UniProt P07332)
T2 construct: purchased Reaction Biology Corp
T2 sequence (P07332 whole entry): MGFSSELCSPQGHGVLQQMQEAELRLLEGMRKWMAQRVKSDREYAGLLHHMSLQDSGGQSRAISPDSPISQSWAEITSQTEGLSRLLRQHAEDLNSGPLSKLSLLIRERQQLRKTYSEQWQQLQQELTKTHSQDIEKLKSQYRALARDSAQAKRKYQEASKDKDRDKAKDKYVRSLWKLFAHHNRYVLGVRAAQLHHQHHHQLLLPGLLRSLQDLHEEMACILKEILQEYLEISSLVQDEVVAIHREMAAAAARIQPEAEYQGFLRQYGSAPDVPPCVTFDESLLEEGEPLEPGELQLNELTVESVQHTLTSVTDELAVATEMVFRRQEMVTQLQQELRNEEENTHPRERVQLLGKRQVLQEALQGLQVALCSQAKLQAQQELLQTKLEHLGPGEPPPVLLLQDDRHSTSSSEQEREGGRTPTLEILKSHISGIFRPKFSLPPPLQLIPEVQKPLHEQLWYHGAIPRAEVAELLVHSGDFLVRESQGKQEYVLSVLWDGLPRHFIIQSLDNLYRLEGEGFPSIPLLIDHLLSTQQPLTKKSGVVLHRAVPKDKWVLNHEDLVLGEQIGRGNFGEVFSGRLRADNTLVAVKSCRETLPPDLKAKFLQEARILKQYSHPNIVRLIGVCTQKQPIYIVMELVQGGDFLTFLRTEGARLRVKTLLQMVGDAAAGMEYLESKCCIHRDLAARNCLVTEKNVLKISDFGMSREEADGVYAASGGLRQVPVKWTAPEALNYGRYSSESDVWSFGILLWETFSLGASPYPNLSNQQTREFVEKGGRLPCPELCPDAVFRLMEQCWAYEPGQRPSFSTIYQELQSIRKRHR
Outline: as §1

HIPK1 = target: T3, HIPK1 (Homo sapiens, UniProt Q86Z02)
T3 construct: purchased Reaction Biology Corp
Outline: as §1

MLK3/MAP3K11 = target: T4, MLK3/MAP3K11 (Homo sapiens, UniProt Q16584)
T4 construct: purchased Reaction Biology Corp
T4 sequence (Q16584 whole entry): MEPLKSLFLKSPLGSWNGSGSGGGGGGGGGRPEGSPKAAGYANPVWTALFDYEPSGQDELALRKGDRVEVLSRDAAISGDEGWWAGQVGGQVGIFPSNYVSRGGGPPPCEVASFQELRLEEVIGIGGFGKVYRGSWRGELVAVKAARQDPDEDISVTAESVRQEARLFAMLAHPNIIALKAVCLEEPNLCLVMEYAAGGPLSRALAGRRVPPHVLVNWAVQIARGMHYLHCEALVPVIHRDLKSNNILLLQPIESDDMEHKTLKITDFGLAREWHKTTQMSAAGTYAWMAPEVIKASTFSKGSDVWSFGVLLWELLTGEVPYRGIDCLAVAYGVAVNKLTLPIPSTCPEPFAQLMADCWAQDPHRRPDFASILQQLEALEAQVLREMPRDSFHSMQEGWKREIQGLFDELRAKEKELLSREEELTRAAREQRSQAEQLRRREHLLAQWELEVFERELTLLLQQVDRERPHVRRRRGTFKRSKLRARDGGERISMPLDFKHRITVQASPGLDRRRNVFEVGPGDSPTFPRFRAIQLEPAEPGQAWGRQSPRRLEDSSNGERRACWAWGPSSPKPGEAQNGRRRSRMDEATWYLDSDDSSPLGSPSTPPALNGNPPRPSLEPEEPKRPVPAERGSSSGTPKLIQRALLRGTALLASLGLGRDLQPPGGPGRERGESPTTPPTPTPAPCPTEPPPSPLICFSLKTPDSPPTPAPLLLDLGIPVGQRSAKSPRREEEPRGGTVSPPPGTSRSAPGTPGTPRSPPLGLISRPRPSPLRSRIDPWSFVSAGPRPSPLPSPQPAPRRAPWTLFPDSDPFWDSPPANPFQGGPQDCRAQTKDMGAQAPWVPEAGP
Outline: as §1

NEK11 = target: T5, NEK11 (Homo sapiens, UniProt Q8NG66)
T5 construct: purchased Reaction Biology Corp
T5 sequence (Q8NG66 1-645): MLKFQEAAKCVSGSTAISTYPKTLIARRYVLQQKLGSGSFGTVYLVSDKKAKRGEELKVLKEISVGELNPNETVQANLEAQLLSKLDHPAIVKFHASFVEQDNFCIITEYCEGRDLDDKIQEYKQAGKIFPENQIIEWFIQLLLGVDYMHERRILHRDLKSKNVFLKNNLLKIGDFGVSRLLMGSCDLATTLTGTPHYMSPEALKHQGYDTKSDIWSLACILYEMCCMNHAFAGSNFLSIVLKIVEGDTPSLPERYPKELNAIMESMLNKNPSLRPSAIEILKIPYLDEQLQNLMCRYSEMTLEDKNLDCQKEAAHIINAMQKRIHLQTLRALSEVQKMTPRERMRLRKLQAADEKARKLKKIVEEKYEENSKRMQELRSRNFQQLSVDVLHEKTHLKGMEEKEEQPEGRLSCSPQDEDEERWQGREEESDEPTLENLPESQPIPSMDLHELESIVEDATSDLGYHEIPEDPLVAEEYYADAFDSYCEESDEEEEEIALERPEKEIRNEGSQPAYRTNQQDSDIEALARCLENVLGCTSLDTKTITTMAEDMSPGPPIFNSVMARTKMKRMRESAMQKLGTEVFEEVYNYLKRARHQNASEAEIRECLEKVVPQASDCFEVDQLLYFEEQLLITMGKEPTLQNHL
Outline: as §1

RAF1 = settings: 3 μM
Outline: as §1

TGFBR2 = target: T6, TGFBR2 (Homo sapiens, UniProt P37173)
T6 construct: purchased Reaction Biology Corp
T6 sequence (P37173 23-567): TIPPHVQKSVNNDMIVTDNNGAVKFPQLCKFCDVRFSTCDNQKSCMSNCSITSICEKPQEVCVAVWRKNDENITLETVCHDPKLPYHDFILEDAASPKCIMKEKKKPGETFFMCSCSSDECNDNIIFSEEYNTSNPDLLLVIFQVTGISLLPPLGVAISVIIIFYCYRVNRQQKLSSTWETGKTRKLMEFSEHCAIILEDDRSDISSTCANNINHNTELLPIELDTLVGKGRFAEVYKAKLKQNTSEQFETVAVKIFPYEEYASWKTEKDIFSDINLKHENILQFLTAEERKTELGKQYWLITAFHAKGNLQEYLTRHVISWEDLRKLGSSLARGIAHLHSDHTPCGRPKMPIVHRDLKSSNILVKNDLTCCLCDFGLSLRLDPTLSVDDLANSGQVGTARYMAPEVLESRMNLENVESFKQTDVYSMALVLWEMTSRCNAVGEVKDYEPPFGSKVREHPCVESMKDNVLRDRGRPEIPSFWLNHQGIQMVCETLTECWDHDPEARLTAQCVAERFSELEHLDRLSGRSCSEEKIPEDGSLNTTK
Outline: as §1

ULK1 = target: T7, ULK1 (Homo sapiens, UniProt O75385)
T7 construct: purchased Reaction Biology Corp
T7 sequence (O75385 1-1050): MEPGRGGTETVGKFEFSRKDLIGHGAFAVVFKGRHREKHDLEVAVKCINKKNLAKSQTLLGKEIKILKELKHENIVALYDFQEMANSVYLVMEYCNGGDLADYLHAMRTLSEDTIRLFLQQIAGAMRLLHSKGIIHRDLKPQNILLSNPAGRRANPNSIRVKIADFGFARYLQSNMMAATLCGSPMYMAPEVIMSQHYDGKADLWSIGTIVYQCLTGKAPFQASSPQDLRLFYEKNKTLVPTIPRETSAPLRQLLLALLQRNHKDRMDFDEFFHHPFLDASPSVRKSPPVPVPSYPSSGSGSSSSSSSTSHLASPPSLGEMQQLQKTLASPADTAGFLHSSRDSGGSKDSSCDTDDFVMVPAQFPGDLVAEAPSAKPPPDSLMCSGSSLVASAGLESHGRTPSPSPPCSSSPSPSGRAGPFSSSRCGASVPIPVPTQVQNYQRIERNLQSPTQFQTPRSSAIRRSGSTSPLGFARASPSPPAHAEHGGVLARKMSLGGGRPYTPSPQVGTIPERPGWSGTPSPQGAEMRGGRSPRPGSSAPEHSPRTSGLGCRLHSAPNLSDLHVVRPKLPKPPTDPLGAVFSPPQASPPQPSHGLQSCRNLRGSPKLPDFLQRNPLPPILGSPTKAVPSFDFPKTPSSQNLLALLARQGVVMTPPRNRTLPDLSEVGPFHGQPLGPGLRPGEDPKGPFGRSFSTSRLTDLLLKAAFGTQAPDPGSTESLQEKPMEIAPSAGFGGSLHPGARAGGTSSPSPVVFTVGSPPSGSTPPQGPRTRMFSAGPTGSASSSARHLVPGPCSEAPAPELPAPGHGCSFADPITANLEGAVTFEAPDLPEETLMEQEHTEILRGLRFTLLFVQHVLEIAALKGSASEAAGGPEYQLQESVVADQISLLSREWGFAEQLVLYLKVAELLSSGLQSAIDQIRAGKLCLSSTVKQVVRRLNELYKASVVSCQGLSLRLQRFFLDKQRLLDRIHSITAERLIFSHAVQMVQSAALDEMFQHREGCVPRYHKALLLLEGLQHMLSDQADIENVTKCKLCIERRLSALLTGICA
Outline: as §1

c-MET = target: T8, c-MET (Homo sapiens, UniProt P08581)
T8 construct: purchased Reaction Biology Corp
T8 sequence (P08581 25-1390): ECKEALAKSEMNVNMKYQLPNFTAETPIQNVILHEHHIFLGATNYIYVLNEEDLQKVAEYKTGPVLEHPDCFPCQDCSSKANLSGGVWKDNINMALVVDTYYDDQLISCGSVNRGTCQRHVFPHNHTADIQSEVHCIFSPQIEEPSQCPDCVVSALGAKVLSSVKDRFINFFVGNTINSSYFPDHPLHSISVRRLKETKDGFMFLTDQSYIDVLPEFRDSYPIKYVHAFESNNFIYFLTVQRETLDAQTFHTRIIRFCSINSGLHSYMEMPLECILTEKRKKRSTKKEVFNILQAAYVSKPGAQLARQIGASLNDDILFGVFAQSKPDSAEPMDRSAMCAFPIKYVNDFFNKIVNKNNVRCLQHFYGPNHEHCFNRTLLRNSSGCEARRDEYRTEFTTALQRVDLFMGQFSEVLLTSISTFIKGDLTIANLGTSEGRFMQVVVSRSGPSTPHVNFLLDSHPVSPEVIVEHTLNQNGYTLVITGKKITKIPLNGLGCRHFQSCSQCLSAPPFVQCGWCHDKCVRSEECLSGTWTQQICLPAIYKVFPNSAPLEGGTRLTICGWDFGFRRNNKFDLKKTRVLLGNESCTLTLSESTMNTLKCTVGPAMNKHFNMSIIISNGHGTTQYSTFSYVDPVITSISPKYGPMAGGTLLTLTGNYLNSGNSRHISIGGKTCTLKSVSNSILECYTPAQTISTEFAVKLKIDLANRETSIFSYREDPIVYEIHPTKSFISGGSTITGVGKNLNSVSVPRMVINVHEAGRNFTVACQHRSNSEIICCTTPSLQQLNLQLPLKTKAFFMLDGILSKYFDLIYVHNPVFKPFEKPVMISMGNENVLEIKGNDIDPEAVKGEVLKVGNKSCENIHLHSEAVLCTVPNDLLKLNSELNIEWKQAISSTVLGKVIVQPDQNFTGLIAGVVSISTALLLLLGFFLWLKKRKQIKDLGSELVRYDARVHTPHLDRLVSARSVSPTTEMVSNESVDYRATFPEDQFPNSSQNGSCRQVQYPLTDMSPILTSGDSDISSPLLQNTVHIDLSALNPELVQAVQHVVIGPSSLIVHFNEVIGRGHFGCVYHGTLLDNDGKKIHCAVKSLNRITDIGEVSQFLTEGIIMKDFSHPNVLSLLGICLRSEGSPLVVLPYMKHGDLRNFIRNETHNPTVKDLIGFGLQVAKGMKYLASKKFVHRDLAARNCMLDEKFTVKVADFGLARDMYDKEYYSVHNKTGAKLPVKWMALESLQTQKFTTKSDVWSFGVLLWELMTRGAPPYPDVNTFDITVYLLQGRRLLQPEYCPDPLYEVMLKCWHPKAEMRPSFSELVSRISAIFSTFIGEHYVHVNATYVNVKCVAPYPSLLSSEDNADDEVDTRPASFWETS
Outline: as §1

[1] = read-out: % Enzyme Activity (relative to DMSO controls) Run 1
[2] = read-out: % Enzyme Activity (relative to DMSO controls) Run 2

T1 sequence (P50750 whole entry): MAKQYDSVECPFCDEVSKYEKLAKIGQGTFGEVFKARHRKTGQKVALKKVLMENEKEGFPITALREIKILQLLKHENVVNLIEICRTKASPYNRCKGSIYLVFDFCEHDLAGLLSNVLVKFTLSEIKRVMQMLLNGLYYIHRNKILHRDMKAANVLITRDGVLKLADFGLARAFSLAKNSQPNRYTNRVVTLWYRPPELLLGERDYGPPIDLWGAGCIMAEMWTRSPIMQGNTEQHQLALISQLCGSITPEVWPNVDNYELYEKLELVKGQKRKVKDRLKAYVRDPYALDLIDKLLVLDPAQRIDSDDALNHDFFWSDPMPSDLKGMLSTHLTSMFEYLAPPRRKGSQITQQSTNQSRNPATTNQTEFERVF
T1 sequence (O75909 whole entry partner): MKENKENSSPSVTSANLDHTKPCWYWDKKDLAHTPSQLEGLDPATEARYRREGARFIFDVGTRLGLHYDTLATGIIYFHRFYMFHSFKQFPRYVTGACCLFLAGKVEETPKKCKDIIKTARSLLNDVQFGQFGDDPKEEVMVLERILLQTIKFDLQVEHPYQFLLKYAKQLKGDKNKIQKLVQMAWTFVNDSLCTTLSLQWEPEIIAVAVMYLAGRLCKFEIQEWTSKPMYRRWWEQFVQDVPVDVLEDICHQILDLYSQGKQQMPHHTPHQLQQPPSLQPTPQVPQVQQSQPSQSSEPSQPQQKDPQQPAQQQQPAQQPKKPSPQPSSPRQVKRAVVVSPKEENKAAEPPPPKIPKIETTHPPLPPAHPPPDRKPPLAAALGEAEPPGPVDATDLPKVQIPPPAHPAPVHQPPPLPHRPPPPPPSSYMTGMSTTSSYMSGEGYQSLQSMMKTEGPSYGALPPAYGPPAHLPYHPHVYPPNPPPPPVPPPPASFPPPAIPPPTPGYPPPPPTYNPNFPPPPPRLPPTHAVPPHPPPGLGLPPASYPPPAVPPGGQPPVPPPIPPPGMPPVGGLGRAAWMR

C=CC(=O)Nc1cccc(Nc2nc(Nc3ccc(OCCOC)c(F)c3)ncc2F)c1 [Compound 2]
inhibition at 3 µM (CDK9/cyclin K): 18.1% | remaining activity at 3 µM (CDK9/cyclin K; [1]): 81.7% | remaining activity at 3 µM (CDK9/cyclin K; [2]): 82.2% | inhibition at 3 µM (FES/FPS): 35% | remaining activity at 3 µM (FES/FPS; [1]): 64% | remaining activity at 3 µM (FES/FPS; [2]): 66% | inhibition at 3 µM (HIPK1): 10.3% | remaining activity at 3 µM (HIPK1; [1]): 87.6% | remaining activity at 3 µM (HIPK1; [2]): 91.7% | inhibition at 3 µM (MLK3/MAP3K11): 73.4% | remaining activity at 3 µM (MLK3/MAP3K11; [1]): 27.9% | remaining activity at 3 µM (MLK3/MAP3K11; [2]): 25.2% | inhibition at 3 µM (NEK11): 7.32% | remaining activity at 3 µM (NEK11; [1]): 92.5% | remaining activity at 3 µM (NEK11; [2]): 92.8% | % Enzyme Activity (relative to DMSO controls) Run 1 (RAF1): 83.34% | % Enzyme Activity (relative to DMSO controls) Run 2 (RAF1): 83.62% | Average % Inhibition (RAF1): 16.52% | inhibition at 3 µM (TGFBR2): -0.19% | remaining activity at 3 µM (TGFBR2; [1]): 98.1% | remaining activity at 3 µM (TGFBR2; [2]): 102% | inhibition at 3 µM (ULK1): -0.59% | remaining activity at 3 µM (ULK1; [1]): 100% | remaining activity at 3 µM (ULK1; [2]): 101% | inhibition at 3 µM (c-MET): -1.49% | remaining activity at 3 µM (c-MET; [1]): 103% | remaining activity at 3 µM (c-MET; [2]): 100%
